Earlier results on 1 molecule are cited in patent US20100179144A1, “QUINAZOLINE DERIVATIVES AS P13 KINASE INHIBITORS” (priority 2007, published 2010).

In the data set the test system is Class I PI3-kinases. To be noted: about; Fruman et al. 1998; read-out: IC50 against each of these PI3-kinases.

As for `O=c1cc(N2CCOCC2)oc2c(-c3ccccc3)cccc12` [LY294002], the IC50 is 15 to 20 µM.

For orientation: IC50 means the midpoint of a concentration-inhibition curve.
